# Reference: article PMC11685355, “Solid lipid nanoparticles for increased oral bioavailability of acalabrutinib in chronic lymphocytic leukaemia” (Discover Nano, 2024)
# Where two headings read alike, the source gives them in different places.
# Tests used:
# [1] = parameters: method as in doi:10.1002/sscp.202400110; details: Wistar rats; cited from earlier work
# [2] = In vitro dissolution studies, USP type II apparatus; format: physicochemical; details: pH 6.8, 0.5% w/v SDS, within 2 h
# Procedure: Dissolution studies were performed using USP type II dissolution apparatus under conditions simulating the fluids in different parts of the gastrointestinal tract (200 mL of pH 1.2 ± 0.02; 4.5 ± 0.02 buffer; and 900 mL of pH 6.8 ± 0.02 buffer) and blood/plasma (500 mL of pH 7.4 ± 0.02 buffer). […] The temperature was maintained at 37 ± 2 °C with a constant stirring rate of 75 rpm. At predetermined time intervals, 1000 μL samples were withdrawn from the dissolution media via a syringe and replenished with the same volume of fresh media (to retain the sink condition). The samples were immediately centrifuged at 15,373 × g in an ultracentrifuge. The supernatant was collected, diluted with mobile phase (methanol with 10 mM (pH 3.5) ammonium acetate buffer at a ratio of 52:48), and analysed via an HPLC–UV-based analytical method (mentioned in Sect. 3.2). The dissolution data obtained were contoured into different mathematical models (zero order; first order; and Higuchi square root kinetics) to determine the kinetics of drug release. The best fit model was analysed on the basis of the regression coefficient.
# [3] = cited from earlier work
# [4] = Solubility of ACP in molten solid lipids; format: physicochemical
# Procedure: The solid lipids were screened on the basis of biocompatibility and visual evaluation of the solubility of ACP in the lipids. Solid lipids such as GB (Compritol® 888 ATO), glyceryl di-stearate (Precirol ATO 5), glyceryl trimyristate (Dynasan 114), stearic acid, SP (Kolliwax® S) and cetyl palmitate were selected for solubility studies, as they were reported to be biocompatible. In the solubility studies, approximately 200 mg of each lipid was weighed separately and melted by heating to 5–10 °C above its corresponding melting point using a magnetic stirrer equipped with a temperature controlling program. ACP was added in small amounts to each lipid (in molten state), incrementally, up to a maximum of 100 mg under continuous stirring (150–200 rpm) while maintaining the temperature (5–10 °C above its corresponding melting point) until some amount of ACP was present in undissolved / powder form in the lipid. Further, the lipids in which the drug has similar solubility, the lipid solutions (ACP dissolved in lipid) were maintained at the same temperature for 60 min to observed for any precipitation of the drug.
# [5] = Saturation solubility of ACP in buffers with 0.5% w/v SDS; format: physicochemical; details: buffer systems with 0.5% w/v SDS; pH 4.5; 6.8; and 7.4 in the presence of 0.5% w/v SDS
# Text: The inherent hydrophobicity of ACP results in a solubility profile that is dependent on pH. […] It is very important to maintain sink condition during the in vitro dissolution study of any drug product. To maintain sink condition in the in vitro dissolution studies of hydrophobic drugs, various strategies can be employed, including, addition of surfactant; maintaining large volumes of dissolution media; addition of co-solvents; and use of a different dissolution apparatus like a flow through cell etc.. Of all the above strategies, addition of surfactants (either ionic or non-ionic) is the most commonly employed strategy. SDS, an anionic surfactant, is used to improve the wettability and saturation solubility of hydrophobic drugs in aqueous media. Researchers have used SDS in the range of 0.2 to 20% w/v to maintain the sink condition in the in vitro dissolution studies of formulations containing hydrophobic molecules. Thus, in order to achieve a sink condition, 0.5% w/v SDS was added in buffer systems having a pH of 4.5 and higher. […] Based on the above criteria, we have determined the minimum volume of pH 4.5, pH 6.8 and pH 7.4 (containing 0.5% w/v SDS) required to dissolve the entire drug dose administered in the formulation to be at least 130 mL.
# [6] = cited from earlier work; remark: listed apart in the source
# [7] = Solubility of ACP in surfactant solutions; format: physicochemical; details: aqueous with cosolvent or surfactant or cyclodextrin
# Procedure: Surfactants are primarily chosen on the basis of two criteria: firstly, the affinity of ACP towards the aqueous solution in the presence of the surfactant; and secondly, their capacity to form a stable emulsion when the solid lipid is combined with the aqueous phase. […] Further, on the basis of the solubility of ACP in various surfactants, separate placebo batches of SLNs were prepared using the selected surfactant(s), in order to assess their ability to stabilize the SLNs by evaluating the particle size via dynamic light scattering.
structure (smiles),measurement,setting,value
"CC#CC(=O)N1CCC[C@H]1c1nc(-c2ccc(C(=O)Nc3ccccn3)cc2)c2c(N)nccn12 [ACP, Acalabrutinib]",absolute oral bioavailability,[1],22.83% ± 5.015%
same,ACP dissolved,[2],more than 80%
same,excreted in faeces,[3],84%
same,excreted in urine,[3],12%
same,"unchanged ACP, share of the total amount eliminated",[3],less than 2%
same,solubility of ACP in lipid,[4]; in 200 mg of GB (glyceryl di-behenate),~ 40 mg
same,solubility of ACP in lipid,[4]; in 200 mg of SP (stearyl palmitate),> 80 mg
same,solubility,[5],≥ 770 µg/mL
same,solubility of ACP,[6]; 0.01 N HCl (pH = 2),3730 µg/mL
same,solubility of ACP,[6]; 0.1 N HCl (pH = 1),29200 µg/mL
same,solubility of ACP,[6]; acetate or citrate buffer (pH = 4.5),159 µg/mL
same,maximum basic pKa,[6],5.77
same,solubility above pH 6,[6],practically insoluble
same,solubility,"[7]; aqueous surfactant solution (Gelucire 44/14), Gelucire 44/14 0.15 % w/v, read-out: ACP solubility",1.36 µg/mL
same,solubility,"[7]; aqueous surfactant solution (Gelucire 44/14), Gelucire 44/14 2 % w/v, read-out: ACP solubility",2.27 µg/mL
same,solubility,"[7]; aqueous surfactant solution (Gelucire 48/16), Gelucire 48/16 0.15 % w/v, read-out: ACP solubility",1.18 µg/mL
same,solubility,"[7]; aqueous surfactant solution (Gelucire 48/16), Gelucire 48/16 2 % w/v, read-out: ACP solubility",2.96 µg/mL
same,solubility,"[7]; aqueous surfactant solution (PVP K30), Polyvinyl Pyrrolidone (PVP)- K30 0.15 % w/v, read-out: ACP solubility",0.748 µg/mL
same,solubility,"[7]; aqueous surfactant solution (PVP K30), Polyvinyl Pyrrolidone (PVP)- K30 2 % w/v, read-out: ACP solubility",2.27 µg/mL
same,solubility,"[7]; aqueous surfactant solution (Tween 80), 1% w/v solution of T80, read-out: solubility of ACP",< 0.1 µg/mL
same,solubility,"[7]; aqueous surfactant solution (Tween 80), Tween 80 (T80) 0.15 % w/v, read-out: ACP solubility",0.0523 µg/mL
same,solubility,"[7]; aqueous surfactant solution (Tween 80), Tween 80 (T80) 2 % w/v, read-out: ACP solubility",0.194 µg/mL
same,solubility,"[7]; aqueous surfactant solution (poloxamer 188), 1% w/v solution of P188, read-out: solubility of ACP",< 0.1 µg/mL
same,solubility,"[7]; aqueous surfactant solution (poloxamer 188), Poloxamer 188 (P188) 0.15 % w/v, read-out: ACP solubility",0.0075 µg/mL
same,solubility,"[7]; aqueous surfactant solution (poloxamer 188), Poloxamer 188 (P188) 2 % w/v, read-out: ACP solubility",0.0202 µg/mL
same,solubility,"[7]; aqueous surfactant solution (poloxamer 407), Poloxamer 407 (P407) 0.15 % w/v, read-out: ACP solubility",0.209 µg/mL
same,solubility,"[7]; aqueous surfactant solution (poloxamer 407), Poloxamer 407 (P407) 2 % w/v, read-out: ACP solubility",1.74 µg/mL
same,solubility,"[7]; aqueous surfactant solution (polyvinyl alcohol), Polyvinyl Alcohol (PVA) 0.15 % w/v, read-out: ACP solubility",0.0137 µg/mL
same,solubility,"[7]; aqueous surfactant solution (polyvinyl alcohol), Polyvinyl Alcohol (PVA) 2 % w/v, read-out: ACP solubility",0.109 µg/mL
